# Like-named read-outs stand apart in the source and are kept apart here. Marks after values point to notes of the source that are not given here.
# How the values were obtained:
# [1] = Phase 1 Multiple Ascending Dose (MAD) study Part 1, plasma pharmacokinetics
# Experimental: All Part 1 cohorts will be dosed every 12 hours with food for 5 days.
# During the treatment period (Day 1 through Day 5), participants will be administered their assigned study medication BID, every 12 h ± 0.25 h (with approximately 240 mL of non-carbonated water), 30 minutes after the start of consumption of their standardised breakfast or dinner (12 h apart). A standardised lunch will be served ≥ 4 h post breakfast and ≥ 4 h prior to dinner. An evening snack will be served ≥ 3 h following evening study medication administration. No additional fluids will be allowed during the 1 h pre- and post-doses. On Day 6, subjects will replicate mealtimes as scheduled on Day 1-5.
# In Part 1, blood samples (4 mL each) for PK will be collected for Cohorts 1, 2, 3, 4, and 6 at specified times (hours) at each as follows: • Day 1 and Day 5: 0 (pre-dose), 0.5, 1, 1.5, 2, 2.5, 3, 3.5, 4, 6, 8, 12 (pre-dose), 13, 14, 15, 16, 18 h • Day 2, Day 3 and Day 4: 0 (pre-morning-dose) and 12 h (pre-evening-dose) • Day 6: 12, 18, 24 and 36 h post-last dose • Day 7: 48 h (post-last dose)
# Pharmacokinetics for Day 1 to 3 in Part 2 (fed state) will be compared to PK for Day 1 to Day 3 in Part 2 (fasted state). Plasma PK parameters (non-compartmental or compartmental analysis as appropriate) will include, but are not limited to: • Following single dose: Tmax, tlag, Cmax, AUC0-4, AUC0-last, t½, AUC0-inf, lambda z, %AUCext, CL/F, Vz/F, Cmax/D, AUC0-last/D, AUC0-inf/D and MRT (D is dose) • After repeated doses: Ctrough, Ctrough/D • Following repeated doses on last day: Tmax, Cmax, Cavg, tlag, t½, AUC0-4, AUC0-last, AUC0-inf, lambda z, %AUCext, CLss/F, Vzss/F, MRT, PTF, Rac(AUC), Rac(Cmax), Cmax/D, AUClast/D, AUC0-inf/D and Rac (accumulation ratio)
# All cohorts (n=6 each) were dosed every 12 hours with food for 5 days at either 100, 250, 500, or 750 mg BID. […] Following processing, the samples were analyzed by HPLC on a Phenomenex Luna PFP(2), 3 µm, 50 x 2.0 mm column, and the eluates were monitored by an API4000 MS/MS detector in positive MRM mode. The data were acquired and processed by the data acquisition system Analyst® (Sciex).
# [2] = Repeat dose oral toxicity and toxicokinetics study in Sprague Dawley rats
# Experimental: The protocol was amended to add additional TK male animals in Group 6 for Day 1 collection of TK samples at 875 mg/kg.
# Blood samples were collected from 3 subsets of 3 animals/sex on Day 1 and Day 28 at predose, 0.25, 0.5, 1, 2, 4, 8 and 24 hours (hr) post-dose for groups 2 to 6 and from one subset of 3 animals/sex at 0.25 hr post-dose for the vehicle group (group 1). […] Non-compartmental analysis (NCA) of plasma concentration data was conducted using Phoenix® WinNonlin®, version 8.0.
# [3] = Single dose, double-blinded, cross-over clinical trial of 801 mg LYT-100 vs pirfenidone, safety and pharmacokinetics; settings: for Metabolite/Parent Ratio, AUC0-∞, Mean / Metabolite/Parent Ratio, Cmax, Mean: MW-corrected; for Cmax / tmax: 5-hydroxymethyl metabolite after 801 mg of parent (LYT-110 after LYT-100, LYT-111 after pirfenidone); for Cmax / AUC0-t / AUC(inf) / Kel / t½: Mean (CV%); for tmax: Median (Range); for AUC0-t / AUC(inf) / Kel / t½: 5-hydroxymethyl metabolite after 801 mg of parent; for AUC(inf) / Kel / t½: n=23 LYT-110, n=19 LYT-111; for metabolite as percent of parent in terms of AUC: single 801 mg dose
# Text: (§1) Following screening, eligible healthy volunteer subjects were admitted to a single clinical study site and were randomized to 1 of 2 treatment sequences. […] In each period, a standardized breakfast was provided to subjects prior to administration of study drug (to compare the PK profiles in the clinically relevant fed state) and plasma samples were collected over a 48-hour period after dosing for evaluation of PK. Dosing between the 2 periods was separated by a minimum of 7 days. Subjects completed the study upon completion of the 48-hour post-dose assessments following dosing period 2.
# (§2) All capsules were identical in size, shape, and external color.
# [4] = human, in vivo, 48 h
# Text: as §1, §2
# [5] = cited from earlier work
# [6] = cited from earlier work; remark: listed apart in the source
# [7] = across dose groups 100, 250, 500, 750 mg BID (FIG. 20)
# [8] = across dose groups 100, 250, 500, 750, 1000 mg BID (FIG. 26)
# [9] = Day 1, Female, deuterated analyte / non-deuterated counterpart
# [10] = after 801 mg LYT-100 (parent LYT-100)
# [11] = after 801 mg pirfenidone (parent LYT-101)
# [12] = Lancaster et al. 2017, frequencies as high as
# [13] = patients aged at least 80 years
# [14] = single-center retrospective study of 351 patients
smiles,measurement,setting,value
"[2H]C([2H])([2H])c1ccc(=O)n(-c2ccc(O)cc2)c1 [LYT-103, d3-4′-hydroxy-pirfenidone]",average ratio to the parent (M/P) by AUC,"[1]; Cohort 4, 750 mg BID LYT-100",0.0017 (0.0012-0.0022)
same,average ratio to the parent (M/P) by AUC,"[1]; Cohort 6, 1000 mg BID LYT-100",0.0037 (0.0030-0.0058)
same,AUC accumulation ratio (AUC96-108/AUC0-12),[1]; [7],~ 1
same,AUC accumulation ratio (AUC96-108/AUC0-12),[1]; [8],~ 1
same,"similarity in exposure (AUC ratio), Group 4 (LYT-100 at 750 mg/kg) / Group 5 (SD-559 at 750 mg/kg)",[2]; [9],21.77
same,"similarity in exposure (AUC ratio), Group 4 (LYT-100 at 750 mg/kg) / Group 5 (SD-559 at 750 mg/kg)","[2]; Day 1, Male",34.51
same,"similarity in exposure (AUC ratio), Group 4 (LYT-100 at 750 mg/kg) / Group 5 (SD-559 at 750 mg/kg)","[2]; Day 28, Female",38.04
same,"Metabolite/Parent Ratio, AUC0-∞, Maximum",[3]; [10],0.2%
same,"Metabolite/Parent Ratio, AUC0-∞, Median",[3]; [10],0.1%
same,"Metabolite/Parent Ratio, AUC0-∞, Minimum",[3]; [10],0.1%
same,"Metabolite/Parent Ratio, Cmax, Maximum",[3]; [10],0.2%
same,"Metabolite/Parent Ratio, Cmax, Median",[3]; [10],0.1%
same,"Metabolite/Parent Ratio, Cmax, Minimum",[3]; [10],0.1%
same,"Metabolite/Parent Ratio, AUC0-∞, Mean",[3]; [10],0.1%
same,"Metabolite/Parent Ratio, Cmax, Mean",[3]; [10],0.1%
same,quantifiability of metabolite in human plasma,[3]; after LYT-100 801 mg,not quantifiable
"O=c1ccc(CO)cn1-c1ccccc1 [LYT-111, 5-hydroxymethyl-pirfenidone]",Cmax,[3],17.1 (36%) ng/mL
same,tmax,[3],2.50 (1.50 - 4.00) hr
same,AUC0-t,[3],75.8 (42%) hr*ng/mL
same,AUC(inf),[3],89.7 (41%) ^b hr*ng/mL
same,Kel,[3],0.367 (29%) ^b ⅟hr
same,t½,[3],2.04 (29%) ^b hr
same,"Metabolite/Parent Ratio, AUC0-∞, Maximum",[3]; [11],0.4%
same,"Metabolite/Parent Ratio, AUC0-∞, Median",[3]; [11],0.2%
same,"Metabolite/Parent Ratio, AUC0-∞, Minimum",[3]; [11],0.1%
same,"Metabolite/Parent Ratio, Cmax, Maximum",[3]; [11],0.4%
same,"Metabolite/Parent Ratio, Cmax, Median",[3]; [11],0.2%
same,"Metabolite/Parent Ratio, Cmax, Minimum",[3]; [11],0.1%
same,"Metabolite/Parent Ratio, AUC0-∞, Mean",[3]; [11],0.2%
same,"Metabolite/Parent Ratio, Cmax, Mean",[3]; [11],0.2%
same,metabolite as percent of parent in terms of AUC,[3],less than 2%
"Cc1ccc(=O)n(-c2ccccc2)c1 [pirfenidone, 5-methyl-1-phenyl-1H-pyridin-2-one]",tolerability of single doses,[4],well tolerated
same,"AUC, % Change Fed vs Fasted",[5]; Pirfenidone @ 800 mg,-15%
same,"Cmax, % Change Fed vs Fasted",[5]; Pirfenidone @ 800 mg,-49%
same,"Tmax, % Change Fed vs Fasted",[5]; Pirfenidone @ 800 mg,+500%
same,"increase in Tmax, fed vs fasted",[5]; pirfenidone,500%
same,"diarrhea, TEAE frequency",[6]; [12],≤ 27.6 per 100PEY
same,"fatigue, TEAE frequency",[6]; [12],≤ 52.4 per 100PEY
same,"nausea, TEAE frequency",[6]; [12],≤ 62.1 per 100 PEY
same,adverse drug reactions leading to permanent treatment discontinuation,"[6]; PASSPORT study, Cottin et al. 2018",28.7%
same,patients who had an adverse event,"[6]; compassionate use program, Raghu & Thickett 2013",44%
same,half-life,[6]; in humans,about 2.5 hours
same,ADR leading to discontinuation,[6]; patients aged <65 years,7.5%
same,ADR leading to discontinuation,[6]; [13],20.9%
same,ADR leading to dose modification/interruption,[6]; [13],32.7%
same,ADR leading to dose modification/interruption,[6]; patients aged less than 65 years,18.0%
same,elevations of AST and ALT levels to >3× ULN,[6]; phase III trials,3.2%
same,loss of appetite,[6]; [14],17%
same,nausea/vomiting,[6]; [14],15%
same,reported AEs that were GI-related,[6]; [14],75%
"Cc1ccc(=O)n(-c2ccc(O)cc2)c1 [LYT-104, 4′-hydroxy-pirfenidone]","Metabolite/Parent Ratio, Cmax, Maximum",[3]; [11],0.1%
same,"Metabolite/Parent Ratio, Cmax, Median",[3]; [11],0.0%
same,"Metabolite/Parent Ratio, Cmax, Minimum",[3]; [11],0.0%
same,"Metabolite/Parent Ratio, Cmax, Mean",[3]; [11],0.0%
same,metabolite as percent of parent in terms of AUC,[3],less than 2%
"[2H]C([2H])(O)c1ccc(=O)n(-c2ccccc2)c1 [LYT-110, d2-5-hydroxymethyl-pirfenidone]",average ratio to the parent (M/P) by AUC,"[1]; Cohort 4, 750 mg BID LYT-100",0.0025 (0.0020-0.0029)
same,average ratio to the parent (M/P) by AUC,"[1]; Cohort 6, 1000 mg BID LYT-100",0.0028 (0.0018-0.0038)
same,AUC accumulation ratio (AUC96-108/AUC0-12),[1]; [7],~ 1
same,AUC accumulation ratio (AUC96-108/AUC0-12),[1]; [8],~ 1
same,Cmax in rat relative to human,"[2]; 750 mg/kg LYT-100, Day 1, male rat vs human 801 mg",~1825 fold
same,exposure (AUC) in rat relative to human,"[2]; 750 mg/kg LYT-100, Day 1, male rats vs human 801 mg",about 1250 fold
same,"similarity in exposure (AUC ratio), Group 4 (LYT-100 at 750 mg/kg) / Group 5 (SD-559 at 750 mg/kg)",[2]; [9],2.50
same,"similarity in exposure (AUC ratio), Group 4 (LYT-100 at 750 mg/kg) / Group 5 (SD-559 at 750 mg/kg)","[2]; Day 1, Male",2.22
same,"similarity in exposure (AUC ratio), Group 4 (LYT-100 at 750 mg/kg) / Group 5 (SD-559 at 750 mg/kg)","[2]; Day 28, Female",2.59
same,"similarity in exposure (AUC ratio), Group 4 (LYT-100 at 750 mg/kg) / Group 5 (SD-559 at 750 mg/kg)","[2]; Day 28, Male",2.54
same,exposure and Cmax vs. non-deuterated corresponding metabolite (SD-788),"[2]; SD-560 750 mg/kg vs SD-559 750 mg/kg, all days, both genders",almost twice
same,exposure in rats relative to humans,[2]; male rat after 28 days of daily dosing vs human,~1600 fold
same,Cmax,[3],20.6 (30%) ng/mL
same,tmax,[3],2.50 (1.00 - 4.00) hr
same,AUC0-t,[3],111 (32%) hr*ng/mL
same,AUC(inf),[3],124 (32%) ^a hr*ng/mL
same,Kel,[3],0.294 (44%) ^a ⅟hr
same,t½,[3],2.76 (38%) ^a hr
same,"Metabolite/Parent Ratio, AUC0-∞, Maximum",[3]; [10],0.4%
same,"Metabolite/Parent Ratio, AUC0-∞, Median",[3]; [10],0.2%
same,"Metabolite/Parent Ratio, AUC0-∞, Minimum",[3]; [10],0.1%
same,"Metabolite/Parent Ratio, Cmax, Maximum",[3]; [10],0.4%
same,"Metabolite/Parent Ratio, Cmax, Median",[3]; [10],0.2%
same,"Metabolite/Parent Ratio, Cmax, Minimum",[3]; [10],0.1%
same,"Metabolite/Parent Ratio, AUC0-∞, Mean",[3]; [10],0.2%
same,"Metabolite/Parent Ratio, Cmax, Mean",[3]; [10],0.2%
